Our source for the IC50 values is US20090163490A1, “Pyrrolopyrimidine Derivatives Used As HSP90 Inhibitors” (VERNALIS (R&D) LTD., priority 2006, published 2009).

In the first assay the target is T1, human full-length HSP90 (Homo sapiens, UniProt P08238).
T1 construct: E. coli expressed human full-length HSP90 protein, purified >95%; made in house; host or cells: E. coli
T1 sequence (P08238 whole entry): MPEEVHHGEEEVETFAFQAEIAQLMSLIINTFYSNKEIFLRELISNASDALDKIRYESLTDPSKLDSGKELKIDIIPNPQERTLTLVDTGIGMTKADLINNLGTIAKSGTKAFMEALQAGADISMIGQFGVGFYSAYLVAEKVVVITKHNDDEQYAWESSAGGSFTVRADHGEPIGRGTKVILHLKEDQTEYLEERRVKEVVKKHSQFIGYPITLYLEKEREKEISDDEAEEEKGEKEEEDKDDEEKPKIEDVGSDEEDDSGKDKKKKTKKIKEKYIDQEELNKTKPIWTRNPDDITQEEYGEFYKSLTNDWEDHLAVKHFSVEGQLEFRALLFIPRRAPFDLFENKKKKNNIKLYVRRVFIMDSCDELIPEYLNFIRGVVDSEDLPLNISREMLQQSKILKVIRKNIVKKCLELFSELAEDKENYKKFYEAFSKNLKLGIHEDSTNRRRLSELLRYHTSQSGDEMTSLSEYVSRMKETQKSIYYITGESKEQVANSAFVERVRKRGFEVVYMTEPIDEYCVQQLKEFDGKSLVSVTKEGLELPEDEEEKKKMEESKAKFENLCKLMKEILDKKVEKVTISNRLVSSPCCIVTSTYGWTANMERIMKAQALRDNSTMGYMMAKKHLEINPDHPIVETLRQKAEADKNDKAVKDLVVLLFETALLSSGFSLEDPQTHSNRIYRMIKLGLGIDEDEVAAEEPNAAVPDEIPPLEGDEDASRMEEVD
The assay is described as follows: Fluorescence polarization (FP) binding assay. Particulars: competitive displacement of fluorescein-labelled probe from human full-length HSP90; activity range; read-out: ACTIVITY* (Activity in the FP binding assay). The text has this: Fluorescence Polarization Assay
Fluorescence polarization {also known as fluorescence anisotropy} measures the rotation of a fluorescing species in solution, where the larger molecule the more polarized the fluorescence emission. When the fluorophore is excited with polarized light, the emitted light is also polarized. The molecular size is proportional to the polarization of the fluorescence emission.
The fluoroscein-labelled probe—
binds to HSP90 {full-length human, full-length yeast or N-terminal domain HSP90} and the anisotropy {rotation of the probe:protein complex} is measured.
Test compound is added to the assay plate, left to equilibrate and the anisotropy measured again. Any change in anisotropy is due to competitive binding of compound to HSP90, thereby releasing probe.
Stored at room temperature. • 3) BSA (bovine serum albumen) 10 mg/ml (New England Biolabs # B9001S) • 4) 20 mM probe in 100% DMSO stock concentration. Stored in the dark at RT. Working concentration is 200 nM diluted in AR water and stored at 4° C.
• 1) Add 100 μl×buffer to wells 1A and 12A(=FP BLNK) • 2) Prepare assay mix—all reagents are kept on ice with a lid on the bucket as the probe is light-sensitive.
• 3) Aliquot 100 μl assay mix to all other wells • 4) Seal plate and leave in dark at room temp for 20 minutes to equilibrate
This gives 2.5 mM {50×} stock cpd−assuming cpds 20 mM. • 4) Repeat for wells A2 to A10. Control in columns 11 and 12. • 5) Transfer 5 μl from row A to row B—not column 12. Mix well. • 6) Transfer 5 μl from row B to row C. […] Add 2 μl of 100 mM standard cpd to wells B12-H12 {is positive control} • 13) The Z′ factor is calculated from zero controls and positive wells.
For orientation: Polarisation of emitted light reports the rotation of a fluorescent probe.
As for `COc1cc(Cl)c(-c2nc(Sc3ccccc3)nc3[nH]cc(C#N)c23)cc1OC` [Example 84], the IC50 was less than 500 nM.

As for `COc1cc(Cl)c(-c2nc(Sc3nccs3)nc3[nH]cc(C#N)c23)cc1OC` [Example 85], the IC50 is less than 500 nM.

In the case of `CCOC(=O)C(C)Sc1nc(-c2cc(OCCN3CCC(F)(F)C3)c(OC)cc2Cl)c2c(C#N)c[nH]c2n1` (stereo not shown) [Example 88], the IC50 is less than 500 nM.

As to `CCN(CC)CCOc1nc(-c2cc(OC)c(OC)cc2Cl)c2c(C#N)c[nH]c2n1` [Example 56], the IC50 was less than 500 nM.

As to `N#Cc1c[nH]c2nc(OCCN3CCC(F)(F)CC3)nc(-c3cc(OCc4ccccc4)c(Cl)cc3Cl)c12` [Example 52], the IC50 is 500 to 10000 nM.

As for `COc1cc(Cl)c(-c2nc(C(C)C)nc3[nH]cc(C#N)c23)cc1OC` [Example 70], the IC50 was in the range of 500 to 10000 nM.

For `COc1cc(Cl)c(-c2nc(SC(C)CN3CCC(F)(F)C3)nc3[nH]cc(C#N)c23)cc1OC` (stereo not shown) [Example 83], the IC50 is less than 500 nM.

With `CCc1nc(-c2cc(OCCN(CC)CC)c(OC)cc2Cl)c2c(C#N)c[nH]c2n1` [Example 67], the IC50 is less than 500 nM.

For the compound `COc1cc(-c2nc(OCCN3CCCC(F)(F)C3)nc3[nH]cc(C#N)c23)c(Cl)cc1C#N` [Example 62], the IC50 was less than 500 nM.

With `CSc1nc(-c2cc3c(cc2Cl)OCO3)c2c(C#N)c[nH]c2n1` [Example 77], the IC50 was less than 500 nM.

As for `COc1cc(Cl)c(-c2nc(OCCN3CC[C@H](F)C3)nc3[nH]cc(C#N)c23)cc1OC` [Example 58], the IC50 is less than 500 nM.

Consider `COc1cc(Cl)c(-c2nc(SC)nc3[nH]cc(C#N)c23)cc1OCCN1CC[C@H](F)C1` [Example 73], for which the IC50 was less than 500 nM.

`CCN(CC)CCOc1cc(-c2nc(SC(C)C)nc3[nH]cc(C#N)c23)c(Cl)cc1OC` [Example 68]: the IC50 is less than 500 nM.

Consider `COc1cc(Cl)c(-c2nc(OCCN3CC[C@@H](F)C3)nc3[nH]cc(C#N)c23)cc1OC` [Example 65], for which the IC50 is less than 500 nM.

Turning to `CCN(CC)CCOc1cc(-c2nc(SC3CCCC3)nc3[nH]cc(C#N)c23)c(Cl)cc1OC` [Example 81], the IC50 was less than 500 nM.

For `COc1cc(Cl)c(-c2nc(OCCCN3CCCC3=O)nc3[nH]cc(C#N)c23)cc1OC` [Example 57], the IC50 is less than 500 nM.

Still in this assay, the particulars now being: competitive displacement of fluorescein-labelled probe from human full-length HSP90; activity range; read-out: activity in the fluorescence polarization assay.
Regarding `CCN(CC)CC[S+]([O-])c1nc(-c2cc(OC)c(OC)cc2Cl)c2c(C#N)c[nH]c2n1` (stereo not shown) [Example 46, 4-(2-Chloro-4,5-dimethoxy-phenyl)-2-(2-diethylamino-ethanesulfinyl)-7H-pyrrolo[2,3-d]pyrimidine-5-carbonitrile], the IC50 was in the range of 500 to 10000 nM.

On to `CCN(CC)CCSc1nc(-c2cc(OC)c(Cl)cc2Cl)c2c(C#N)c[nH]c2n1` [Example 23, 4-(2,4-Dichloro-5-methoxy-phenyl)-2-(2-diethylamino-ethylsulfanyl)-7H-pyrrolo[2,3-d]pyrimidine-5-carbonitrile], for which the IC50 is less than 500 nM.

As for `CCN(CC)CCSc1nc(-c2cc(OC)c(OC)cc2Cl)c2c(C#N)c[nH]c2n1` [Example 30, 4-(2-Chloro-4,5-dimethoxy-phenyl)-2-(2-diethylamino-ethylsulfanyl)-7H-pyrrolo[2,3-d]pyrimidine-5-carbonitrile], the IC50 was less than 500 nM.

Regarding `CCN(CC)CCOc1cc(-c2nc(SC)nc3[nH]cc(C#N)c23)c(Cl)cc1Cl` [Example 27, 4-[2,4-Dichloro-5-(2-diethylamino-ethoxy)-phenyl]-2-methylsulfanyl-7H-pyrrolo[2,3-d]pyrimidine-5-carbonitrile], the IC50 was less than 500 nM.

Regarding `COc1ccc(-c2nc(OCCN3CCC(F)(F)C3)nc3[nH]cc(C#N)c23)cc1OC` [Example 33, 2-[2-(3,3-Difluoro-pyrrolidin-1-yl)-ethoxy]-4-(3,4-dimethoxy-phenyl)-7H-pyrrolo[2,3-d]pyrimidine-5-carbonitrile], the IC50 lay in the range of 500 to 10000 nM.

`Cc1ccc(-c2ncnc3[nH]cc(C(N)=O)c23)c(C)c1` [Example 39, 4-(2,4-Dimethyl-phenyl)-7H-pyrrolo[2,3-d]pyrimidine-5-carboxylic Acid Amide]: the IC50 is more than 10000 nM.

With `CSc1nc(-c2cc(OCCN3CCCC3)c(Cl)cc2Cl)c2c(C#N)c[nH]c2n1` [Example 26, 4-[2,4-Dichloro-5-(2-pyrrolidin-1-yl-ethoxy)-phenyl]-2-methylsulfanyl-7H-pyrrolo[2,3-d]pyrimidine-5-carbonitrile], the IC50 is less than 500 nM.

Consider `CNc1nc(-c2ccc(F)cc2C)c2c(C#N)c[nH]c2n1` [Example 17, 4-(4-Fluoro-2-methyl-phenyl)-2-methylamino-7H-pyrrolo[2,3-d]pyrimidine-5-carbonitrile], for which the IC50 lay within 500 to 10000 nM.

With `CCOC(=O)CSc1nc(-c2cc(OCCN3CCC(F)(F)C3)c(OC)cc2Cl)c2c(C#N)c[nH]c2n1` [Example 49, (4-{2-Chloro-5-[2-(3,3-difluoro-pyrrolidin-1-yl)-ethoxy]-4-methoxy-phenyl}-5-cyano-7H-pyrrolo[2,3-d]pyrimidin-2-ylsulfanyl)-acetic Acid Ethyl Ester], the IC50 was less than 500 nM.

For `COc1cc(Cl)c(-c2nc(S(C)(=O)=O)nc3[nH]cc(C#N)c23)cc1OC` [Example 48, 4-(2-Chloro-4,5-dimethoxy-phenyl)-2-methanesulfonyl-7H-pyrrolo[2,3-d]pyrimidine-5-carbonitrile], the IC50 is 500 to 10000 nM.

As to `Cc1cc(F)ccc1-c1nc(OCCN2CCCC2)nc2[nH]cc(C#N)c12` [Example 13, 4-(4-Fluoro-2-methyl-phenyl)-2-(2-pyrrolidin-1-yl-ethoxy)-7H-pyrrolo[2,3-d]pyrimidine-5-carbonitrile], the IC50 is more than 10000 nM.

With `CSc1nc(-c2ccc(C)cc2C)c2c(C#N)c[nH]c2n1` [Example 1, 4-(2,4-dimethyl-phenyl)-2-methylsulfanyl-7H-pyrrolo[2,3-d]pyrimidine-5-carbonitrile], the IC50 is less than 500 nM.

As for `COc1nc(-c2ccc(F)cc2C)c2c(C#N)c[nH]c2n1` [Example 12, 4-(4-Fluoro-2-methyl-phenyl)-2-methoxy-7H-pyrrolo[2,3-d]pyrimidine-5-carbonitrile], the IC50 lay in the range of 500 to 10000 nM.

As to `Cc1cc(F)ccc1-c1nc(OCCN2CCCC2=O)nc2[nH]cc(C#N)c12` [Example 15, 4-(4-Fluoro-2-methyl-phenyl)-2-[2-(2-oxo-pyrrolidin-1-yl)-ethoxy]-7H-pyrrolo[2,3-d]pyrimidine-5-carbonitrile], the IC50 is 500 to 10000 nM.

Turning to `Cc1cc(F)ccc1-c1nc(SCCO)nc2[nH]cc(C#N)c12` [Example 20, 4-(4-Fluoro-2-methyl-phenyl)-2-(2-hydroxy-ethylsulfanyl)-7H-pyrrolo[2,3-d]pyrimidine-5-carbonitrile], the IC50 was less than 500 nM.

In the case of `Cc1ccc(-c2ncnc3[nH]cc(C#N)c23)c(C)c1` [Example 9, 4-(2,4-dimethyl-phenyl)-7H-pyrrolo[2,3-d]pyrimidine-5-carbonitrile], the IC50 was 500 to 10000 nM.

`CCN(CC)CCOc1cccc(-c2nc(SC)nc3[nH]cc(C#N)c23)c1` [Example 7]: the IC50 was 500 to 10000 nM.

In the case of `CCN(CC)CCOc1cc(-c2nc(SC(C)C)nc3[nH]cc(C#N)c23)c(Cl)cc1OC` [Example 45, 4-[2-Chloro-5-(2-diethylamino-ethoxy)-4-methoxy-phenyl]-2-isopropylsulfanyl-7H-pyrrolo[2,3-d]pyrimidine-5-carbonitrile], the IC50 was less than 500 nM.

Consider `CSc1nc(-c2ccc(C)cc2C)c2c(Br)c[nH]c2n1` [Example 5, 5-Bromo-4-(2,4-dimethyl-phenyl)-2-methylsulfanyl-7H-pyrrolo[2,3-d]pyrimidine], for which the IC50 lay in the range of 500 to 10000 nM.

On to `CSc1nc(-c2ccc(F)cc2C)c2c(C#N)c[nH]c2n1` [Example 4, 4-(2-methyl-4-fluoro-phenyl)-2-methylsulfanyl-7H-pyrrolo[2,3-d]pyrimidine-5-carbonitrile], for which the IC50 was less than 500 nM.

Take `CSc1nc(-c2ccccc2)c2c(C#N)c[nH]c2n1` [Example 2, 2-methylsulfanyl-4-phenyl-7H-pyrrolo[2,3-d]pyrimidine-5-carbonitrile]: the IC50 is less than 500 nM.

For `CSc1nc(-c2ccc(C)cc2C)c2c(C)c[nH]c2n1` [Example 6, 4-(2,4-dimethyl-phenyl)-5-methyl-2-methylsulfanyl-7H-pyrrolo[2,3-d]pyrimidine], the IC50 fell in the range of 500 to 10000 nM.

Regarding `Cc1ccc(-c2nc(Cl)nc3[nH]cc(C#N)c23)c(C)c1` [Example 8, 2-Chloro-4-(2,4-dimethyl-phenyl)-7H-pyrrolo[2,3-d]pyrimidine-5-carbonitrile], the IC50 is less than 500 nM.

Consider `COc1ccc(-c2nc(SC)nc3[nH]cc(C#N)c23)cc1OC` [Example 44, 4-(Dimethoxy-phenyl)-2-methylsulfanyl-7H-pyrrolo[2,3-d]pyrimidine-5-carbonitrile], for which the IC50 is less than 500 nM.
